Laboratory results as given in ChEMBL document CHEMBL1156161, “Assessing the trypanocidal potential of natural and semi-synthetic diketopiperazines from two deep water marine-derived fungi” (Bioorg Med Chem, 2010).
Values after ≈ are worked out from the molar mass of the structure shown.

Tests used:
[1] = tested on: Trypanosoma brucei brucei; assay: Antitrypanosomal activity against Trypanosoma brucei brucei 427-221a after 40 hrs by bioluminescence assay; type: functional, organism-based; details: for IC50 / EC50: Trypanosoma brucei, 427-221a, 40 h
[2] = target: Rhodesain (Trypanosoma brucei rhodesiense, UniProt Q95PM0); assay: Inhibition of […] after 5 mins by spectrofluorimetry
Sequence of Rhodesain (Q95PM0 whole entry): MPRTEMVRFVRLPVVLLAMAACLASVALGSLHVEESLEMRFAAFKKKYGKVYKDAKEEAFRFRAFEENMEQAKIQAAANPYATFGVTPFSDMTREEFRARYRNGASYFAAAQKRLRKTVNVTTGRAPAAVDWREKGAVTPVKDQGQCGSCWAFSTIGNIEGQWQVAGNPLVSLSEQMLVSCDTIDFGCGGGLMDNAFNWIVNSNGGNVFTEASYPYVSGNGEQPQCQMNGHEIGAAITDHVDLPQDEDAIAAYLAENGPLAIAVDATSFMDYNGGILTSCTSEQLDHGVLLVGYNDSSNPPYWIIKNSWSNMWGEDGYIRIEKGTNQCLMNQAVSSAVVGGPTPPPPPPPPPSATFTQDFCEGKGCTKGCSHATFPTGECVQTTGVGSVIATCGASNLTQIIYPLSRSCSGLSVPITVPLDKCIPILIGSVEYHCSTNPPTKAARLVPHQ

[3] = Inhibition of Trypanosoma brucei brucei recombinant cathepsin B assessed after 5 mins by spectrofluorimetry
[4] = tested on: Jurkat; assay: Cytotoxicity against human Jurkat cells after 40 hrs bioluminescence assay; type: cell-based
[5] = Selectivity index, ratio of IC50 for human Jurkat cells to IC50 for Trypanosoma brucei brucei; type: toxicity, cell-based; details: for Ratio IC50: jurkat; for selectivity ratio: Jurkat cells, read-out: Ratio IC50
[6] = Inhibition of PAF
[7] = Selectivity index, ratio of IC50 for rat L6 cells to IC50 for Trypanosoma brucei brucei
[8] = tested on: Trypanosoma brucei brucei; assay: Antitrypanosomal activity against Trypanosoma brucei brucei at 1.25 ug/ml after 40 hrs by bioluminescence assay relative to control; type: functional
[9] = tested on: HeLa; assay: Cytotoxicity against human HeLa cells; type: functional, cell-based
[10] = tested on: A549; assay: Cytotoxicity against human A549 cells; type: functional, cell-based
[11] = Inhibition of Su(var)3-9
[12] = target: Thioredoxin reductase 1, cytoplasmic (Homo sapiens, UniProt Q16881); assay: Inhibition of thioredoxin reductase 1
Sequence of Thioredoxin reductase 1, cytoplasmic (Q16881 whole entry): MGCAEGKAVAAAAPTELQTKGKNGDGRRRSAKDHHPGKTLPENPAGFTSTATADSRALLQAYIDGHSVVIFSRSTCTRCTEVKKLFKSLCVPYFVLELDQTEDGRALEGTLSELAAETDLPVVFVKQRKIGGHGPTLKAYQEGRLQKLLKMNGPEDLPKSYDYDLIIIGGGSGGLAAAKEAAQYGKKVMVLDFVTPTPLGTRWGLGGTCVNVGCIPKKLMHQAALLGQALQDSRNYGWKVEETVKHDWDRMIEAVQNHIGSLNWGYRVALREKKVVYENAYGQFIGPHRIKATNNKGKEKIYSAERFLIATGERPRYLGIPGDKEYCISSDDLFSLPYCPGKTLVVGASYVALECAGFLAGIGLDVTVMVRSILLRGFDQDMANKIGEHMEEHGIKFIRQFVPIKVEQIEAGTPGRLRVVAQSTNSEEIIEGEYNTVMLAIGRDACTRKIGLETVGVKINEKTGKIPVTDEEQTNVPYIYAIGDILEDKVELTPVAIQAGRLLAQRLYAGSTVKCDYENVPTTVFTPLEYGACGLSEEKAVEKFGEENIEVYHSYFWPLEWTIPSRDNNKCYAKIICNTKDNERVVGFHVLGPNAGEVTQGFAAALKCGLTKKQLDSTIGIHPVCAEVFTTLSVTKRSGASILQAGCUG

[13] = Ciliostatic activity against human respiratory epithelium assessed as required active concentration; type: functional
[14] = species on record: Homo sapiens; assay: Induction of apoptosis in human HSC assessed as required active concentration; type: functional
[15] = Inhibition of NADPH oxidase
[16] = tested on: HUVEC; assay: Cytotoxicity against HUVEC; type: cell-based; details: Homo sapiens
[17] = Cytotoxicity against rainbow trout RTS11 cells; type: cell-based; details: Oncorhynchus mykiss
[18] = Cytotoxicity against rainbow trout RTG2 cells; type: cell-based; details: Oncorhynchus mykiss
[19] = Cytotoxicity against chinook salmon CHSE-214 cells; type: cell-based; details: Oncorhynchus tshawytscha
[20] = tested on: Tetrahymena pyriformis; assay: Antiprotozoal activity against Tetrahymena pyriformis; type: functional, organism-based
[21] = target: Mycothiol S-conjugate amidase (Mycobacterium tuberculosis, UniProt P9WJN1); assay: Inhibition of Mycobacterium tuberculosis mycothiol-S-conjugate amidase
Sequence of Mycothiol S-conjugate amidase (P9WJN1 whole entry): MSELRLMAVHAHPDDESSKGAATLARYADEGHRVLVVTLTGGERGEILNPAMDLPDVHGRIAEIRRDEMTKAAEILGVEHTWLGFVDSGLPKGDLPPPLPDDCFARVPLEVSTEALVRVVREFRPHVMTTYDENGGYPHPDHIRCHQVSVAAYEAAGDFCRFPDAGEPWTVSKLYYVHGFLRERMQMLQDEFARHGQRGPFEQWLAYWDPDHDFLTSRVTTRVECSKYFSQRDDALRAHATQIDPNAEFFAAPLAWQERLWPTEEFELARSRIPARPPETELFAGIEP

[22] = tested on: jurkat; assay: Activation of NF-kappaB in human jurkat cells assessed as active concentration required; type: cell-based
[23] = target: Acetolactate synthase catalytic subunit, mitochondrial (Saccharomyces cerevisiae S288c, UniProt P07342); assay: Inhibition of Saccharomyces cerevisiae acetolactate synthase
Sequence of Acetolactate synthase catalytic subunit, mitochondrial (P07342 whole entry): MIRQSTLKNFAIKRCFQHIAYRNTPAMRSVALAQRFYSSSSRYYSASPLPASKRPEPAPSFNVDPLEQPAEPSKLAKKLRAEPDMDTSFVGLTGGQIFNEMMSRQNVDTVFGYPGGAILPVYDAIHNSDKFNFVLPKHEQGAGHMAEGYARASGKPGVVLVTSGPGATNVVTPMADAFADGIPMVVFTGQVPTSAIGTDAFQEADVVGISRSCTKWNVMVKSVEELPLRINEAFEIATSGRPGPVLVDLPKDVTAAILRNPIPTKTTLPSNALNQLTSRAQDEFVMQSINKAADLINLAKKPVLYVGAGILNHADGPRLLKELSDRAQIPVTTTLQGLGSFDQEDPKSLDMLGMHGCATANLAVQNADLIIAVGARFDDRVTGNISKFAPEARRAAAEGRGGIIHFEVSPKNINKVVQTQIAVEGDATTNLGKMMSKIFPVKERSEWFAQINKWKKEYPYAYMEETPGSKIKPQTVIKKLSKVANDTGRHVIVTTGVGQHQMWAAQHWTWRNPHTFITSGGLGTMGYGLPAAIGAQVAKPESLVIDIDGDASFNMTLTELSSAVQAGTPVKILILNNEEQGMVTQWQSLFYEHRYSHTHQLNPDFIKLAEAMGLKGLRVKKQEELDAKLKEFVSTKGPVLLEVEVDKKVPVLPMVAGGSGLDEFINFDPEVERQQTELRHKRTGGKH

[24] = Inhibition of chymotrypsin-like activity of 20S proteasome activity
[25] = tested on: Macrophomina phaseolina; assay: Antimicrobial activity against Rhizoctonia bataticola; type: functional; details: read-out: ED50 (the source's name)
[26] = tested on: Macrophomina phaseolina; assay: Antimicrobial activity against Macrophomina phaseolina; type: functional; details: read-out: ED50 (the source's name)
[27] = tested on: Globisporangium debaryanum; assay: Antimicrobial activity against Pythium debaryanum; type: functional; details: read-out: ED50 (the source's name)
[28] = tested on: Pythium aphanidermatum; assay: Antimicrobial activity against Pythium aphanidermatum; type: functional; details: read-out: ED50 (the source's name)
[29] = tested on: Athelia rolfsii; assay: Antimicrobial activity against Sclerotium rolfsii; type: functional; details: Agroathelia rolfsii; read-out: ED50 (the source's name)
[30] = tested on: Rhizoctonia solani; assay: Antimicrobial activity against Rhizoctonia solani; type: functional; details: read-out: ED50 (the source's name)
[31] = tested on: Plasmodium falciparum; assay: Antiparasitic activity against chloroquine-resistant Plasmodium falciparum K1; type: functional, organism-based
[32] = Toxicity in ip dosed ddY mouse; type: organism-based; details: in vivo
[33] = tested on: Macrophage; assay: Immunomodulatory activity in macrophage assessed as inhibition of phagocytosis; type: functional; details: read-out: ED50 (the source's name)
[34] = tested on: MDA-MB-468; assay: Cytotoxicity against human MDA-MB-468 cells; type: functional, cell-based
[35] = tested on: MCF7; assay: Cytotoxicity against human MCF7 cells; type: functional, cell-based
[36] = Inhibition of tubulin polymerization assessed as blockade of microtubule assembly at 250 uM; set-up: scale not given: the % may be the effect or the level left
[37] = tested on: Trypanosoma brucei rhodesiense; assay: Antitrypanosomal activity against Trypanosoma brucei rhodesiense after 40 hrs by bioluminescence assay; type: functional
[38] = tested on: HEK293; assay: Cytotoxicity against HEK293 cells; type: cell-based; details: Homo sapiens
[39] = Selectivity index, ratio of EC50 for HEK293 cells to EC50 for Trypanosoma brucei brucei; type: toxicity, cell-based; details: human, read-out: Ratio EC50
[40] = Cell cycle arrest in temperature sensitive mouse FT210 cells assessed as accumulation at M phase; type: functional, cell-based
[41] = Induction of mutagenesis in Salmonella Typhimurium assessed as drug level required by Ames assay; type: toxicity; details: salmonella enterica subsp. enterica serovar typhimurium
[42] = Induction of mutagenesis in microsomes assessed as drug level required by Ames assay; set-up: species or system Microsome
[43] = tested on: Mus musculus; assay: Neurotoxicity in ip dosed Swiss mouse assessed as drug level required for induction of tremor; type: toxicity, organism-based; details: in vivo
[44] = Toxicity in ip dosed mouse; type: organism-based; details: in vivo
[45] = Immunosuppression of mouse spleen lymphocytes; type: functional, tissue-based; details: lymphocyte

SMILES: CS[C@]1(CO)C(=O)N2c3c(O)cccc3C[C@@]2(SC)C(=O)N1C [DEHYDROBIS(METHYLTHIO)GLIOTOXIN]
- IC50 [1]: 8.5 µM
- IC50 [2]: 19.5 µM
- IC50 [3]: > 50 µM
- IC50 [4]: 141 µM
- Ratio IC50 [5]: 16.6 ratio
- IC50 [6]: 16.9 µM

SMILES: Nc1nc(N)nc(Nc2ccc([As]3SCC(CO)S3)cc2)n1 (stereo unspecified) [MELARSOPROL]
- IC50 [1]: 0.004 µM
- selectivity ratio [7]: 1940

SMILES: CS[C@]1(C)NC(=O)[C@](Cc2c[nH]c3ccccc23)(SC)NC1=O [3,6 BISMETHYL(THIOCYCLO)ALANYLTRYPTOPHYL]
- IC50 [1]: > 50 µM

SMILES: CN1C(=O)[C@]23SS[C@@]1(C)C(=O)N2[C@H]1Nc2ccccc2[C@@]1([C@@]12c4ccccc4N[C@@H]1N1C(=O)[C@]4(CO)SS[C@]1(C(=O)N4C)[C@H]2O)[C@@H]3O [VERTICILLIN B]
- Activity [8]: 109%
- IC50 [1]: 0.007 µM
- IC50 [2]: > 50 µM
- IC50 [3]: > 50 µM
- IC50 [4]: < 0.6 µM
- EC50 ([9]; read-out: ED50 (the source's name)): 0.28 µM

SMILES: CN1C(=O)[C@@]23C[C@]4([C@]56C[C@@]78SS[C@@](CO)(C(=O)N7[C@H]5Nc5ccccc56)N(C)C8=O)c5ccccc5N[C@@H]4N2C(=O)[C@]1(CO)SS3 [CHAETOCIN]
- IC50 [1]: 0.002 µM
- IC50 [2]: > 50 µM
- IC50 [3]: > 50 µM
- IC50 [4]: < 0.6 µM
- IC50 [10]: < 0.025 µM
- IC50 [11]: 0.6 µM
- IC50 [12]: 4.6 µM

SMILES: C/C(=C\Cc1c(O)c(Cl)c(C)c(C=O)c1O)CC/C=C(\C)[C@@H]1CC(=O)C(C)(C)O1 [ASCOFURANONE]
- IC100 [1]: 0.03 µM

SMILES: COc1ccc2c(c1)N(C)C(=O)[C@@]21C[C@H]2C(=O)N3CCC[C@H]3C(=O)N2[C@H]1C=C(C)C [N-METHYLSPIROTRYPROSTATIN A]
- IC50 [1]: > 50 µM

SMILES: CN1C(=O)[C@]23CC4=CC=C[C@H](O)[C@H]4N2C(=O)[C@@]1(CO)SS3 [GLIOTOXIN]
- Activity [13]: 30.7 µM
- Activity [14]: 0.3 µM
- IC50 [15]: 9 µM
- IC50 [1]: 0.01 µM
- IC50 [2]: > 50 µM
- IC50 [3]: 0.5 µM
- IC50 [4]: < 1 µM
- IC50 [9]: 2.45 µM
- IC50 [16]: 0.123 µM
- IC50 [10]: 0.003 µM
- EC50 [17]: 1.35 µM
- EC50 [18]: 2 µM
- EC50 [19]: 1.65 µM
- EC50 [20]: 0.38 µM
- IC50 [6]: 93 µM
- IC50 [21]: 50 µM
- Activity [22]: 300 nM
- IC50 [23]: 0.2 µM
- IC50 [24]: 10 µM
- EC50 [25]: 0.9 µM
- EC50 [26]: 5.4 µM
- EC50 [27]: 90.1 µM
- EC50 [28]: 36.9 µM
- EC50 [29]: 6.47 µM
- EC50 [30]: 9.75 µM
- IC50 [31]: 3.6 µM
- LD50 [32]: 17.9 mg/kg
- EC50 [33]: 0.104 µM

SMILES: COc1ccc2c(c1)NC(=O)[C@@]21C[C@H]2C(=O)N3CCC[C@H]3C(=O)N2[C@H]1C=C(C)C [SPIROTRYPROSTATIN A]
- IC50 [1]: > 50 µM
- IC50 [34]: 110 µM
- IC50 [35]: > 300 µM

SMILES: CS[C@]1(CO)C(=O)N2[C@H]3C(=CC=C[C@@H]3O)C[C@@]2(SC)C(=O)N1C [BIS(DETHIO)BIS(METHYLTHIO)GLIOTOXIN]
- IC50 [1]: 40.2 µM
- IC50 [2]: > 50 µM
- IC50 [3]: > 50 µM
- IC50 [4]: 140 µM
- selectivity ratio [5]: 3.5
- IC50 [9]: > 2.81 µM
- IC50 [16]: 1.12 µM
- IC50 [6]: 8.4 µM
- LD50 [32]: > 500 mg/kg
- EC50 [33]: > 10 µM

SMILES: COc1ccc2c(c1)NC(=O)[C@@]21C=C2C(=O)N3CCC[C@H]3C(=O)N2[C@H]1C=C(C)C [SPIROTRYPROSTATIN B]
- IC50 [1]: 5.7 µM
- IC50 [2]: > 50 µM
- IC50 [3]: > 50 µM
- IC50 [4]: 21.1 µM
- Ratio IC50 [5]: 3.7 ratio

SMILES: N=C(N)c1ccc(OCCCCCOc2ccc(C(=N)N)cc2)cc1 [PENTAMIDINE]
- IC50 [1]: 0.007 µM

SMILES: COc1ccc2c3c([nH]c2c1)[C@H](C=C(C)C)N1C[C@@H]2CCCN2C[C@@]1(O)[C@H]3O [CYCLOTRYPROSTATIN A]
- Activity [36]: 66.4%
- IC50 [1]: > 50 µM

SMILES: COc1ccc2c(c1)N(C)C(=O)[C@@]21C=C2C(=O)N3CCC[C@H]3C(=O)N2[C@H]1C=C(C)C [N-METHYL-6-METHOXYSPIROTRYPROSTATIN B]
- IC50 [1]: > 50 µM

SMILES: CS[C@]1(COC(C)=O)C(=O)N2[C@H]3C(=CC=C[C@@H]3OC(C)=O)C[C@@]2(SC)C(=O)N1C [DIACETYLBIS(METHYLTHIO)GLIOTOXIN]
- IC50 [1]: 35.5 µM
- IC50 [2]: > 50 µM
- IC50 [3]: > 50 µM
- IC50 [4]: 56 µM
- Ratio IC50 [5]: 1.6 ratio

SMILES: C/C=C(\C)[C@@H]1C=C[C@@H]2C[C@H](C)C[C@H](C)C2[C@@H]1C(=O)C1=CC(C)(OCCCC)NC1=O (stereo partly specified) [ASCOSALIPYRROLIDINONE A]
- MIC [37]: 30 µg/mL (≈ 72.5 µM)

SMILES: N#Cc1nc(NCc2ccc(Cl)c(Cl)c2)c2ncn(CCCO)c2n1
- EC50 [1]: 0.11 µM
- EC50 [38]: 25 µM
- selectivity ratio [39]: 227

SMILES: CS[C@]1(CO)C(=O)N2[C@H]3C(=CC=C[C@@H]3OC(C)=O)C[C@@]2(SC)C(=O)N1C
- IC50 [1]: 6.5 µM
- IC50 [2]: 12.8 µM
- IC50 [3]: > 50 µM
- IC50 [4]: 125 µM
- Ratio IC50 [5]: 19.2 ratio

SMILES: CS[C@]1(COC(C)=O)C(=O)N2[C@H]3C(=CC=C[C@@H]3O)C[C@@]2(SC)C(=O)N1C
- IC50 [1]: > 50 µM

SMILES: COc1ccc2c3c4n(c2c1)[C@H](C=C(C)C)OOC(C)(C)C[C@@H]4N1C(=O)[C@@H]2CCCN2C(=O)[C@]1(O)[C@H]3O [VERRUCULOGEN]
- IC50 [1]: 12.9 µM
- IC50 [2]: 45 µM
- IC50 [3]: > 50 µM
- IC50 [4]: 97 µM
- selectivity ratio [5]: 7.5
- MIC [40]: 12.2 µM (≈ 6.24 µg/mL)
- Activity [41]: 1 µM
- Activity [42]: 1 µM
- Activity [43]: 0.78 mg/kg
- LD50 [44]: 2.4 mg/kg

SMILES: Cc1ccc(/C(=N\NC(N)=S)c2cc(C(F)(F)F)cc(C(F)(F)F)c2)cc1 [THIOSEMICARBAZONE STANDARD]
- EC50 [1]: 1.3 µM
- IC50 [2]: 0.044 µM
- IC50 [3]: 15 µM
- EC50 [38]: 25 µM
- selectivity ratio [39]: 19

SMILES: CS[C@]1(Cc2c[nH]c3ccccc23)NC(=O)[C@](CO)(SC)N(C)C1=O [CHETOSEMINUDIN B]
- IC50 [1]: 5.9 µM
- IC50 [2]: > 50 µM
- IC50 [3]: > 50 µM
- IC50 [4]: 94.9 µM
- Ratio IC50 [5]: 16.1 ratio
- IC50 [21]: 70 µM
- IC50 [45]: 24 µM
